Key:
[1] = target: Fibroblast growth factor receptor 3 (Homo sapiens) (UniProt P22607); test: FGFR3(h) Eurofins kinase panel; conditions: Compound concentration 1.0 uM
[2] = target: Casein kinase I isoform gamma-3 (Homo sapiens) (UniProt Q9Y6M4); test: CK1gamma3(h) Eurofins kinase panel; conditions: Compound concentration 1.0 uM
[3] = target: Tyrosine-protein kinase JAK2 (Homo sapiens) (UniProt O60674); test: JAK2(h) Eurofins kinase panel; conditions: Compound concentration 1.0 uM
[4] = target: RAC-beta serine/threonine-protein kinase (Homo sapiens) (UniProt P31751); test: PKBbeta (h) Eurofins kinase panel; conditions: Compound concentration 1.0 uM
[5] = target: T1, Serine/threonine-protein kinase tousled-like 1 (Homo sapiens) (UniProt Q9UKI8); test: TLK1(h) Eurofins kinase panel; conditions: Compound concentration 1.0 uM
T1 sequence (whole entry): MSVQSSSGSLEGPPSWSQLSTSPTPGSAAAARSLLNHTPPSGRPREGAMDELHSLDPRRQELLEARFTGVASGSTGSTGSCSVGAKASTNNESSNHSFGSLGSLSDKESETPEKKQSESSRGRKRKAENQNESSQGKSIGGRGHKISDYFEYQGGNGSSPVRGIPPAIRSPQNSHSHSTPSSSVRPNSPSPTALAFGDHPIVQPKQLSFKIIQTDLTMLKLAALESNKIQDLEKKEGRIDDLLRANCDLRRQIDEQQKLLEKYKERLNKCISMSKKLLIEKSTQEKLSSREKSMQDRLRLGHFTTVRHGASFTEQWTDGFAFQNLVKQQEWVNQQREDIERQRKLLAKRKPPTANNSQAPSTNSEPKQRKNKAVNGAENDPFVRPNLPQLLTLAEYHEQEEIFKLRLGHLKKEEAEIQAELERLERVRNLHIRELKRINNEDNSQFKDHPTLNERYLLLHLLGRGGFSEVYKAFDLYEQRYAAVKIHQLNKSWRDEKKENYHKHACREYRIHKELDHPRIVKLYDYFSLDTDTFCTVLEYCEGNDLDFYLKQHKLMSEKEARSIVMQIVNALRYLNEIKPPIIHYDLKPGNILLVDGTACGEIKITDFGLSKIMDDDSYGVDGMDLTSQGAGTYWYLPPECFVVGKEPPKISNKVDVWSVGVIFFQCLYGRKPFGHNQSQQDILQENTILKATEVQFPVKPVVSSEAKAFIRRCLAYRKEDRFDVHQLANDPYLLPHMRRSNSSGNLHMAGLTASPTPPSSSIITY

[6] = target: T2, Serine/threonine-protein kinase Sgk1 (Homo sapiens) (UniProt O00141); test: SGK(h) Eurofins kinase panel; conditions: Compound concentration 1.0 uM
T2 sequence (whole entry): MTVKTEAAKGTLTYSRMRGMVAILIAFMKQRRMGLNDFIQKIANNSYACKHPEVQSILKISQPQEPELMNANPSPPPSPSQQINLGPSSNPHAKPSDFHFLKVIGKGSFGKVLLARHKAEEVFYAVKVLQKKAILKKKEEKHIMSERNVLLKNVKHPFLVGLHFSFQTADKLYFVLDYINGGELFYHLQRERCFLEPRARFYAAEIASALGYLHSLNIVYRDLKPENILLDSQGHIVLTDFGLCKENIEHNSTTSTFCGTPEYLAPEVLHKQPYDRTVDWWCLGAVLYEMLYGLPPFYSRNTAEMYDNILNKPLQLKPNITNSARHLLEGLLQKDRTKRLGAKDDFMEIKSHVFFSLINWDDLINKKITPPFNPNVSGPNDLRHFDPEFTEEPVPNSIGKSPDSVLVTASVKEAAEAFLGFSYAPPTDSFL

[7] = target: Mitogen-activated protein kinase 1 (Homo sapiens) (UniProt P28482); test: MAPK2(h) Eurofins kinase panel; conditions: Compound concentration 1.0 uM
[8] = target: T3, Ephrin type-B receptor 4 (Homo sapiens) (UniProt P54760); test: EphB4(h) Eurofins kinase panel; conditions: Compound concentration 1.0 uM
T3 sequence (whole entry): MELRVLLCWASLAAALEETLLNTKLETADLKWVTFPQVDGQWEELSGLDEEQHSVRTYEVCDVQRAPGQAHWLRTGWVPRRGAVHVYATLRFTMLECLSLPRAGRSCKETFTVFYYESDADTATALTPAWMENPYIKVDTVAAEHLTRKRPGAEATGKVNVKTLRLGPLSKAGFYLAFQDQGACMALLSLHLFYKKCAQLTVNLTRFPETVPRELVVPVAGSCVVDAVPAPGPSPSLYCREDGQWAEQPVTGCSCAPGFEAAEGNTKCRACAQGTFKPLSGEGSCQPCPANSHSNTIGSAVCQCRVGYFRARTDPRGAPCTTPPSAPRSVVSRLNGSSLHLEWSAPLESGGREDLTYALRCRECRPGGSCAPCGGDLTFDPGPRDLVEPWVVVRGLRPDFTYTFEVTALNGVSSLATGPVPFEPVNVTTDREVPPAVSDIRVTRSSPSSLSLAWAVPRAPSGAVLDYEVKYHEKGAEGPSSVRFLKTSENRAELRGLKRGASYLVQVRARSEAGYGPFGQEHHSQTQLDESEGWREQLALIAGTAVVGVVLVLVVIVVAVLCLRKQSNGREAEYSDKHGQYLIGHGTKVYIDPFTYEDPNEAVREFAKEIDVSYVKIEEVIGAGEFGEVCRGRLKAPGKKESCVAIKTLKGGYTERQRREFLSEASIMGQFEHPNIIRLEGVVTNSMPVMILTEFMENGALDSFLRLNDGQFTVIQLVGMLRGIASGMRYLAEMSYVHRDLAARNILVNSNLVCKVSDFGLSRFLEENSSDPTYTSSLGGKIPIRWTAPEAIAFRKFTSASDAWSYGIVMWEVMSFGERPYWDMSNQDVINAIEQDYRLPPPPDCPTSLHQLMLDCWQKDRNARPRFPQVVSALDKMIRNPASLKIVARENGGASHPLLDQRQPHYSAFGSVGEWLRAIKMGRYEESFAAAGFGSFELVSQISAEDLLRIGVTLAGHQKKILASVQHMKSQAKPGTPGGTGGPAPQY

SNU-398 = test: Snu398 cell line Proliferation assay; type: functional, Homo sapiens; conditions: time 3 day
[9] = target: Calcium/calmodulin-dependent protein kinase type 1B (Homo sapiens) (UniProt Q6P2M8); test: CaMKIbeta(h) Eurofins kinase panel; conditions: Compound concentration 1.0 uM
[10] = target: Dual specificity protein kinase CLK1 (Homo sapiens) (UniProt P49759); test: CLK1(h) Eurofins kinase panel; conditions: Compound concentration 1.0 uM
Chain of Dual specificity protein kinase CLK1 (Homo sapiens) (P49759 whole entry, looked up): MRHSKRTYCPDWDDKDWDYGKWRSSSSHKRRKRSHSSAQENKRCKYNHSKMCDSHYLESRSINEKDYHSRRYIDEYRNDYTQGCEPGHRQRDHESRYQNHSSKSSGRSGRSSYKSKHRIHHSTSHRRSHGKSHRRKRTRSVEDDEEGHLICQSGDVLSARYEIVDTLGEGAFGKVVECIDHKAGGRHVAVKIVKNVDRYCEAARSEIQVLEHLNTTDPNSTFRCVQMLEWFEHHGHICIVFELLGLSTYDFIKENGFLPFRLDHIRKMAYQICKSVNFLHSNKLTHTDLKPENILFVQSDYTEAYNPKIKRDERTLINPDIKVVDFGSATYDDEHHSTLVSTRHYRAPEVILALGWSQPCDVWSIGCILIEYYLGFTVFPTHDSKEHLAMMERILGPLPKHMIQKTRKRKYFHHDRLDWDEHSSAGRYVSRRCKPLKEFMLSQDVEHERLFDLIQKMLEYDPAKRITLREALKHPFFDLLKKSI

Chain of RAC-beta serine/threonine-protein kinase (Homo sapiens) (P31751 whole entry): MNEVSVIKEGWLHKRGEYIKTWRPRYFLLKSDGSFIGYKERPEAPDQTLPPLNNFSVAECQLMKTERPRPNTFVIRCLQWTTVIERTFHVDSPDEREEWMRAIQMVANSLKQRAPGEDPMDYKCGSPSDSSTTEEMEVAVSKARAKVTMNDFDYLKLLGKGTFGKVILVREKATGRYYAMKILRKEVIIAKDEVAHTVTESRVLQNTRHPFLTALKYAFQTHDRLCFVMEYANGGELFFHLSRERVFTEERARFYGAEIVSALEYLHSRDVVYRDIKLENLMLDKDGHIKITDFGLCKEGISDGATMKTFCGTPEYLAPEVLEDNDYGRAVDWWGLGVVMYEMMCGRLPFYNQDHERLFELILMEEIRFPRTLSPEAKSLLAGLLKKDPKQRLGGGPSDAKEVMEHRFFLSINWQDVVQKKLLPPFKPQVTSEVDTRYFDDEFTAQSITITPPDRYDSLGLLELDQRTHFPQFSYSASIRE
Chain of Calcium/calmodulin-dependent protein kinase type 1B (Homo sapiens) (Q6P2M8 whole entry): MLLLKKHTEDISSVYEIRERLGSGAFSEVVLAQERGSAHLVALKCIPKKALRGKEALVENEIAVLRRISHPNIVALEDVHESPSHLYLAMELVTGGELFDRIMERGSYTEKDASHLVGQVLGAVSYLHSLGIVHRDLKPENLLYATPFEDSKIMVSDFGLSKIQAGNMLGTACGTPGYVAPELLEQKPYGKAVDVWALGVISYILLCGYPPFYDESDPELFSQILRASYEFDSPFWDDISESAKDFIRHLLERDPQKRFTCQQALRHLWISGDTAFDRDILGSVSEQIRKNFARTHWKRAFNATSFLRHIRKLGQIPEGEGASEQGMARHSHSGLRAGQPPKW
Chain of Casein kinase I isoform gamma-3 (Homo sapiens) (Q9Y6M4 whole entry, looked up, canonical isoform): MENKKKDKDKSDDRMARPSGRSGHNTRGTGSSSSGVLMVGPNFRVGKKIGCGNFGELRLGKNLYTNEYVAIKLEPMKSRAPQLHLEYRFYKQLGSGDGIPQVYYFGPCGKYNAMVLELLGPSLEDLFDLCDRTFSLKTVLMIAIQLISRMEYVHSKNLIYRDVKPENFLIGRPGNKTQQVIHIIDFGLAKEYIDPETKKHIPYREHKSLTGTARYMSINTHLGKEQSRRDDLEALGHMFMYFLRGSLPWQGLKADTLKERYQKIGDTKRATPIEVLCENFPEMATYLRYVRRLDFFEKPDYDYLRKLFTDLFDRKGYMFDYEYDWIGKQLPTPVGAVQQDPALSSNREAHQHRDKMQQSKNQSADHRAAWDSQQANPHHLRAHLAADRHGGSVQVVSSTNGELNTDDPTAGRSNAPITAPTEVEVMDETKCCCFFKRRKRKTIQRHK
Chain of Fibroblast growth factor receptor 3 (Homo sapiens) (P22607 23-806 limits assumed): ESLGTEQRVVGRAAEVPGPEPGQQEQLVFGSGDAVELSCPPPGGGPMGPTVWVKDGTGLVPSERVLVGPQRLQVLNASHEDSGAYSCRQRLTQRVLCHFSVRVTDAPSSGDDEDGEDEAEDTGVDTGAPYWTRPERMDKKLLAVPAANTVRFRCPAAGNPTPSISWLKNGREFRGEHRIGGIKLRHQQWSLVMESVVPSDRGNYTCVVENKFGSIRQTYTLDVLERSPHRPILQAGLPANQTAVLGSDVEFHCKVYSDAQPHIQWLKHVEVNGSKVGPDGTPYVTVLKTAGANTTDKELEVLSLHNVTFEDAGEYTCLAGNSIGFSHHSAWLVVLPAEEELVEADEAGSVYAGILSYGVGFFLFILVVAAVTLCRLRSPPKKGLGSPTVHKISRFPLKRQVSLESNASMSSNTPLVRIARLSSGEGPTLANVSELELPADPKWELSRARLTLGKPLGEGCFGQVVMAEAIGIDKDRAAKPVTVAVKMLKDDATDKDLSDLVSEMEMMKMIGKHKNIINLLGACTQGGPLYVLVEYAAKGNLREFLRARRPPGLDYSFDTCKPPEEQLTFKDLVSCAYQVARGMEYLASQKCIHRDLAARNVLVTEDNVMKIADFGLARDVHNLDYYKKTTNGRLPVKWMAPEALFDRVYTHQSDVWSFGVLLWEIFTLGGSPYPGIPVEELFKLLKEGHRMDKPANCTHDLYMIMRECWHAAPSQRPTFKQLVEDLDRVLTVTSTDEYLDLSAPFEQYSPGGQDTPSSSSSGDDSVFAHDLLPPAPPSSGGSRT
Chain of Tyrosine-protein kinase JAK2 (Homo sapiens) (O60674 whole entry): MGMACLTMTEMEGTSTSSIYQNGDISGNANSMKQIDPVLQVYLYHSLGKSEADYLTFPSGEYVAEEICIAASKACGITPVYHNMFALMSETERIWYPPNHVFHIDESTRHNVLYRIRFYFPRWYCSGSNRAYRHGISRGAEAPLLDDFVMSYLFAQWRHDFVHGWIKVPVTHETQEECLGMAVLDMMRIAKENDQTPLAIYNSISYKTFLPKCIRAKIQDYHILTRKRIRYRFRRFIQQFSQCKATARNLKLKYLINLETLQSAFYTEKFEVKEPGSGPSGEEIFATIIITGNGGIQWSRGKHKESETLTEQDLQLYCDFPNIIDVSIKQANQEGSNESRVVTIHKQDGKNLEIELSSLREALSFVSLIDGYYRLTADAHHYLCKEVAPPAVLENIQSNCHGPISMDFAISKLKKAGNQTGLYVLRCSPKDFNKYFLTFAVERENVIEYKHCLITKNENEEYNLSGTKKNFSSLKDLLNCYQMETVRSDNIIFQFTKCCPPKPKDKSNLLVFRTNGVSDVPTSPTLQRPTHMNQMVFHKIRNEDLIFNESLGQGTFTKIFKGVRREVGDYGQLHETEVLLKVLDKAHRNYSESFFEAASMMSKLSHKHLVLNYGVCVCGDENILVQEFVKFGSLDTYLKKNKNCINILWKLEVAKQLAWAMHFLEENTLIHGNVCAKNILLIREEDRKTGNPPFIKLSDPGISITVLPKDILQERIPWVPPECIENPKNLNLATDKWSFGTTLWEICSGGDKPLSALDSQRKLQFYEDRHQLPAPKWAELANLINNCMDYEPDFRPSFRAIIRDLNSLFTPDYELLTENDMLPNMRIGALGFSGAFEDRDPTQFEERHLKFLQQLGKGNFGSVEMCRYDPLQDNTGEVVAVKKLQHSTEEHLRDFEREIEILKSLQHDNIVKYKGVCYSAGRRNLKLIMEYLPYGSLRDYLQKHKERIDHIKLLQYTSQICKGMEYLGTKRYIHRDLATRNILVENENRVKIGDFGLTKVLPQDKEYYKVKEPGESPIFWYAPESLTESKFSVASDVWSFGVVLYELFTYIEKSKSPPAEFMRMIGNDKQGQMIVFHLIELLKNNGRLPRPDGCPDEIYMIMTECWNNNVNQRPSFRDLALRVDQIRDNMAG
Chain of Mitogen-activated protein kinase 1 (Homo sapiens) (P28482 whole entry): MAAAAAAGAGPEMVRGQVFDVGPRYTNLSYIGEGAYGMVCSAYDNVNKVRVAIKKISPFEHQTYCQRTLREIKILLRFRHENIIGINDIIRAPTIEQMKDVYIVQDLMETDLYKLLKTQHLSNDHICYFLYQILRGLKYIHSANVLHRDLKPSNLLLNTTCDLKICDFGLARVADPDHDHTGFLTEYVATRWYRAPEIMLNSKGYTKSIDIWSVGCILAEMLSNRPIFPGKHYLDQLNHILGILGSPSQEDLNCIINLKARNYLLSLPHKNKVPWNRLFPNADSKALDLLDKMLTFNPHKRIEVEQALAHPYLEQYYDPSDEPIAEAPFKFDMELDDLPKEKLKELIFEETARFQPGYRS

For CCc1ccccc1C(=O)Nc1n[nH]c2c(C)c(F)c(C3C(C#N)=C(C)N(C)C(C)=C3C#N)cc12 [BAY-3827], the % residual kinase activity [1] was 99%, the % residual kinase activity [2] was 105% and the % residual kinase activity [3] was 88%. The % residual kinase activity [4] was 105%, the % residual kinase activity [5] was 103% and the % residual kinase activity [6] was 79%. The % residual kinase activity [7] was 102%, the % residual kinase activity [8] was 77% and the “Cell Proliferation IC50” value (SNU-398) was 7.3 µM. It also gave a % residual kinase activity [9] of 91% and a % residual kinase activity [10] of 108%.

Source: ChEMBL document CHEMBL4507319 (2021)
